How the values were obtained:
[1] = system: cats; test: two-bowl preference test, Example 5 (Feline w/d); format: in vivo, cat; conditions: dry wt. of kibble
Source text: (§1) Finally, a commercial dry palatant enhancer (1.4% dry weight basis) was topically applied to the dry kibbles to complete the test composition.

[2] = system: cats; test: two-bowl preference test, Example 6 (Feline w/d); format: in vivo, cat; conditions: dry wt. of kibble
Source text: as §1

[3] = Exp. No. 7, second set of experiments, 5.0 ppm
[4] = Exp. No. 8, second set of experiments, 10.0 ppm
[5] = Exp. No. 9, second set of experiments, 20.0 ppm
[6] = Exp. No. 10, second set of experiments, 30.0 ppm
[7] = Exp. No. 11, second set of experiments, 40.0 ppm
[8] = Exp. No. 12, second set of experiments, 50.0 ppm
[9] = Exp. No. 7, second set of experiments, 1 ppm
[10] = Exp. No. 8, second set of experiments, 2 ppm
[11] = Exp. No. 9, second set of experiments, 3 ppm
[12] = Exp. No. 10, second set of experiments, 4 ppm
[13] = Exp. No. 11, second set of experiments, 5 ppm
[14] = Exp. No. 12, second set of experiments, 10 ppm

## CC1=C(O)C(=O)C(C)O1 (stereo not drawn) [2,5-dimethyl-4-hydroxy-3(2H)-furanone]
[1]; Exp. No. 1, 5.0 ppm
  Intake Ratio: 0.7676
  Preference (%) control composition: 8.0%
  Preference (%) test composition: 92.0%
  Status (vs. control): Win
[1]; Exp. No. 2, 10.0 ppm
  Intake Ratio: 0.8135
  Preference (%) control composition: 8.0%
  Preference (%) test composition: 88.0%
  Status (vs. control): Win
[1]; Exp. No. 3, 20.0 ppm
  Intake Ratio: 0.8151
  Preference (%) control composition: 12.0%
  Preference (%) test composition: 88.0%
  Status (vs. control): Win
[1]; Exp. No. 4, 30.0 ppm
  Intake Ratio: 0.7546
  Preference (%) control composition: 20.0%
  Preference (%) test composition: 80.0%
  Status (vs. control): Win
[1]; Exp. No. 5, 40.0 ppm
  Intake Ratio: 0.7626
  Preference (%) control composition: 12.0%
  Preference (%) test composition: 88.0%
  Status (vs. control): Win
[1]; Exp. No. 6, 50.0 ppm
  Intake Ratio: 0.8505
  Preference (%) control composition: 8.0%
  Preference (%) test composition: 92.0%
  Status (vs. control): Win
[1]; [3]
  Intake Ratio: 0.9385
  Preference (%) control composition: 0.0%
  Preference (%) test composition: 100.0%
  Status (vs. control): Win
[1]; [4]
  Intake Ratio: 0.7990
  Preference (%) control composition: 12.0%
  Preference (%) test composition: 84.0%
  Status (vs. control): Win
[1]; [5]
  Intake Ratio: 0.8128
  Preference (%) control composition: 8.0%
  Preference (%) test composition: 92.0%
  Status (vs. control): Win
[1]; [6]
  Intake Ratio: 0.8912
  Preference (%) control composition: 4.0%
  Preference (%) test composition: 92.0%
  Status (vs. control): Win
[1]; [7]
  Intake Ratio: 0.8012
  Preference (%) control composition: 16.0%
  Preference (%) test composition: 80.0%
  Status (vs. control): Win
[1]; [8]
  Intake Ratio: 0.8339
  Preference (%) control composition: 12.5%
  Preference (%) test composition: 87.5%
  Status (vs. control): Win
[2]; Exp. No. 1, 1 ppm
  Intake Ratio: 0.7653
  Preference (%) control composition: 20.0%
  Preference (%) test composition: 80.0%
  Status (vs. control): Win
[2]; Exp. No. 2, 2 ppm
  Intake Ratio: 0.8280
  Preference (%) control composition: 17.6%
  Preference (%) test composition: 82.6%
  Status (vs. control): Win
[2]; Exp. No. 3, 3 ppm
  Intake Ratio: 0.9457
  Preference (%) control composition: 4.3%
  Preference (%) test composition: 95.7%
  Status (vs. control): Win
[2]; Exp. No. 4, 4 ppm
  Intake Ratio: 0.8426
  Preference (%) control composition: 16.0%
  Preference (%) test composition: 84.0%
  Status (vs. control): Win
[2]; Exp. No. 5, 5 ppm
  Intake Ratio: 0.8957
  Preference (%) control composition: 11.1%
  Preference (%) test composition: 88.9%
  Status (vs. control): Win
[2]; Exp. No. 6, 10 ppm
  Intake Ratio: 0.8596
  Preference (%) control composition: 4.2%
  Preference (%) test composition: 95.8%
  Status (vs. control): Win
[2]; [9]
  Intake Ratio: 0.9077
  Preference (%) control composition: 4.2%
  Preference (%) test composition: 95.8%
  Status (vs. control): Win
[2]; [10]
  Intake Ratio: 0.7613
  Preference (%) control composition: 16.0%
  Preference (%) test composition: 84.0%
  Status (vs. control): Win
[2]; [11]
  Intake Ratio: 0.8206
  Preference (%) control composition: 13.6%
  Preference (%) test composition: 86.4%
  Status (vs. control): Win
[2]; [12]
  Intake Ratio: 0.8957
  Preference (%) control composition: 4.2%
  Preference (%) test composition: 95.7%
  Status (vs. control): Win
[2]; [13]
  Intake Ratio: 0.8596
  Preference (%) control composition: 12.5%
  Preference (%) test composition: 87.5%
  Status (vs. control): Win
[2]; [14]
  Intake Ratio: 0.7976
  Preference (%) control composition: 15.0%
  Preference (%) test composition: 85.0%
  Status (vs. control): Win

From patent publication US20050142169A1, “Palatability enhanced composition and method for animal consumption” (priority 2003, published 2005)
